From patent US20030165580A1, “Safe pharmaceutical composition for treatment and prevention of gynecological disease” (priority 2002, published 2003)

Assays:
hemopoietic system = test: Recovery of hemopoiesis in mice treated by cyclophosphamide; type: in vivo
Source text: Effects of LIG on hemopoietic system were investigated. […] With increased cells in bone-marrow (BMC), endogenous colonies in spleen and higher ^3H-TdR uptake in marrow and spleen. The level of serum colony stimulating factor (CSF) increased after injection.

uterine RNA = test: Uterine RNA concentration; type: in vivo; conditions: treatment group; absorbance at 260 nm; P < 0.01 vs control
Method: Uterine samples (100 mg) were digested in a 4 M guanidium thiocyanate solution, to which was added 50 μl of 2 M sodium acetate (pH 4.0), 500 μl phenol, and finally 200 μl chloroform/isoamyl alcohol (24:1, v/v) sequentially, with mixing after each addition. The RNA from the resultant solution was pelleted by mixing with 1 vol. isopropanol and incubating at −20° C. for 2 h and spun at 12000×g for 12 min, then resuspended in 0.5% sodium dodecyl sulfate (SDS). The RNA suspension was incubated for 10 min at 65° C. and stored at −20° C. until use. RNA concentration was determined by absorbance intensity at 260 nm.

interleukin-2 (rIL-2) = test: Interleukin-2 (rIL-2) determination; conditions: treatment group
Source text: The methods of determination rIL-2 were regular.

[1] = system: bone marrow stem cells (CFU-S); test: Spleen colony assay, bone marrow stem cells (CFU-S); type: in vivo; conditions: treatment group, mice treated by cyclophosphamide; P < 0.01 vs control
Source text: Effects of LIG on hemopoietic system were investigated. […] With increased cells in bone-marrow (BMC), endogenous colonies in spleen and higher ^3H-TdR uptake in marrow and spleen. The level of serum colony stimulating factor (CSF) increased after injection. […] Pharmacological effects as illustrated by the following table: by means of the spleen colony assay technique the action of LIG on bone marrow stem cells (CFU-S)

lymphocytes = test: Lymphoblastoid transformation test (3H-TdR liquid scintillation); type: in vivo, mice; conditions: treatment group, P < 0.01 vs control
Method: By means of ^3H-TdR liquid scintillation assay technique, the action of LIG on lymphoblastoid transformation was investigated method:
(1) Experimental procedure of animal is the same as in Example 2.
(2) Lemphoblastoid transformation test:
a. Culture media—RPMI 1640, medium 199 minimal essential medium (Eagle).
b. Buffer—Hepes buffer, the final concentration at 37° C. was 25 mM, to maintain the pH of the medium at 7.31.
c. Serum—generally 15-205 fetal bovine serum was incorporated, for lymphocytes from mice, 5% was used.
d. Gaseous phase—5% CO2 in air.
e. Cell concentration—generally 1-2×10^6/ml.
f. Stimulants—20 μl/ml for phytohemagglutinin containing polysaccharide (PHA-M) or 10 μl/ml for polysaccharide-free purified phytohemagglutinin (PHA-P).
a. The conditions of cell culture are same as above. ^3H-TdR was added after 48 hours of incubation at a final concentration of 1 μCi/ml and continued the incubation for 24 hours.
b. Washed the cells twice with cold normal saline and the erythrocytes were lysed. The intact lymphocytes were again washed once with cold saline. Spun down the lymphocytes and added 2 ml of 10% trichloroacetic acid to precipitate the protein. Washed twice with normal saline. Added 2 ml of ethanol:ether (1:1) to wash once. […]
c. Added 4 ml of scintillation fluid to 0.1 ml of the final sample and counted in a liquid scintillation counter.

uterine tissues = test: DNA synthesis of uterine (3H-TdR) in cycloheximide-injured rats; type: in vivo, Sprague-Dawley rats; conditions: treatment group: cycloheximide + LIG, female rats
Method: Female Sprague-Dawley rats at 20 days of age, allowed free access to food and water and, as immature rats, used by age 23 days. Castrate rats were the same strain. Rats of normal group were administered in saline solution by intraperitoneal injection. Rats of control group were injected cycloheximide. Rats of treatment group injected cycloherimide+LIG. At the indicated times the rats were sacrificed by decapitation. The entire uterus from oviduct to cervix was removed, quickly dissected free of fat and connective tissue, blotted on hard filter paper, and weighed. Each uterus was minced with a scissors into a 12-ml polycarbonate tube and homogenized, 10 sec with ice cooling in 10 mM Tris.HCl, pH 7.2, buffer (10 mg of tissue per ml unless otherwise stated), with homogenizer. Aliquets used for DNA analysis. Determination of DNA is used methods of ^3H-TdR.

white blood cells = test: White blood cells in rats treated by cyclophosphamide; type: in vivo; conditions: LIG + cyclophosphamide, 10 days treatment, P < 0.01 vs control
Source text: Action of LIG and cyclophosphamide on white blood cells was investigated by means of white blood cells assay. […] Method of testing in animal is standard. The dosage of LIG and cyclophosphamide is the same as in above examples. Time of treatment is 10 days.

peritoneal macrophages = test: Phagocytosis of peritoneal macrophage of mice; type: in vivo; conditions: LIG 5.5 mg/kg intraperitoneally daily for 5 days, cyclophosphamide 4.5 mg/kg; macrophages with phagocytized chick red blood cells per 100 macrophages; P < 0.01 vs control
Method: Male mice weight 18-20 g were used in the experiments and were divided into treated (LIG) and control groups. The dosage of LIG was 5.5 mg/kg injected intraperitoneally. The control mice were injected with same volume of normal saline. These injections were repeated daily for 5 days, both treated and control group were injected intraperitoneally with cyclosphosphamide. The dosage of cyclophosphamide is 4.5 mg/kg. The same experimental procedure for example 3, 4 and 5 in testing mice were used. Added 0.02 ml of 5% washed chick red blood cell suspension to 0.5 ml of the peritoneal exudates. Shook gently to mix and incubate at 37° C. for 5 minutes. Dipped two cover slips, closed to each other, in the above mixture and incubated for 30 minutes for the migration of the macrophages along the cover slips, fixed and stained with Sharma stain. Examined microscopically for: Phagocytic rate—number of macrophages with phagocytized chick red blood cells per 100 macrophages counted. Method of animal model is regular.

uterine peroxidase = test: Uterine peroxidase activity (gene product of uterine) in cycloheximide-injured rats; type: in vivo, Sprague-Dawley rats; conditions: treatment group: cycloheximide + LIG, intraperitoneal injection, female rats; P < 0.001 vs control
Method: It is known that peroxidase induction is a useful market for estrogen-effected growth responses in uterine. The uterine peroxidase is a useful gene product for assessing effect of hormones on uterine. […] Female Sprague-Dawley rats at 20 days of age, allowed free access to food and water. Castrate rats were the same strain. Rats of normal group were administered in saline solution by intraperitoneal injection. Rats of control group were injected cycloheximide. Rats of treatment group injected cycloherimide+LIG. At the indicated times the rats were sacrificed by decapitation. The entire uterus from oviduct to cervix was removed, quickly dissected free of fat and connective tissue, blotted on hard filter paper, and weighed. Each uterus was minced with a scissors into a 12-ml polycarbonate tube and homogenized, 10 sec with ice cooling in 10 mM Tris.HCl, pH 7.2, buffer (25 mg of tissue per ml unless otherwise stated), with homogenizer. The homogenates were centrifuged for 45 min at 39,000×g at 2°. The hypotonic supernatant fraction contains no peroxidase activity. […] The reaction was started by the addition of enzyme (extract), and initial rates of guaiacol oxidation were determined from the increase in absorbance at 470 nm for the first minutes.

human blood lymphocytes = test: Immune function of human blood lymphocytes (3H-TdR incorporation); type: cell-based; conditions: LIG added to culture medium of lymphocytes from old volunteers (60-70 years)
Method: Twenty (20) old volunteers (60-70 years of age) and 10 healthy young persons participated in the experiment. 2 ml of venous blood, heparinized was obtained from each of the participants. The Study of the effects of LIG was carried out by using Eagle's Minimal Essential Medium MEM). MEM was supplemented with 0.125 ml of heat-inactivated fetal calf serum, 100 units of Penicillin and 0.1 mg of streptomycin per ml of medium. Culture medium was divided into treated (LIG) and control group. LIG was added to the culture medium of treatment group. The culture medium of control group was mixed with same volume as that of LIG of normal saline on the 72 hours of culture. The ^3H-thymidine (^3H-TdR) was added into all the cultures (2 μci/ml) for last 12 hours of culture. The cells were harvested on 0.45 μm filters, washed with phosphate buffer (ph 7.4) and bleached with H2O2. The filters were then dried and the incorporation of ^3H-TdR into lymphocytes cell was measured by scintillation counter.

[2] = mice treated by cyclophosphamide

SMILES: CCC/C=C1\OC(=O)C2=C1CCC=C2 [LIG, ligustilide]
- Level of serum colony stimulating factor (CSF) (hemopoietic system; after injection): increased
- 3H-TdR uptake in marrow and spleen (hemopoietic system; [2]): higher
- Cells in bone-marrow (BMC) (hemopoietic system; [2]): increased
- Recovery rate of hemopoieses (hemopoietic system; [2]): markedly improve
- RNA units (uterine RNA): 0.92 ± 0.12
- IL-2 (interleukin-2 (rIL-2)): 75.6 ± 8.9 U/ml
- Mean (CFU-S ± SD) [1]: 28.5 ± 3.5
- Lymphoblastoid transformation CPM ± SD (lymphocytes): 1650 ± 270 CPM
- DNA synthesis (uterine tissues): 1052 ± 110 CPM/10 g uterine tissues
- White blood cells (white blood cells): 13.8 ± 2.0 × 10^3/cm^3
- Phagocytic (rate ± SD) (peritoneal macrophages): 26.8 ± 3.1
- Peroxidase activity (uterine peroxidase): 7.6 ± 0.8 Enzyme units/10 mg uterus
- 3H-TdR incorporation into lymphocytes, CPM (human blood lymphocytes): 2180 ± 360 CPM
